According to PubChem BioAssay (NCI):
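Compound exposure: 48 hours, 5 concentrations, 96-well plates. GI50: concentration for 50% inhibition of growth. TGI denotes the concentration required for complete inhibition of growth.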

Tests used:
Assay in all cases: NCI anticancer screen, dose series, 48 h
786-0 renal = system: 786-0 renal
A498 renal = system: A498 renal
ACHN renal = system: ACHN renal
BT-549 breast = system: BT-549 breast
CAKI-1 renal = system: CAKI-1 renal
CCRF-CEM leukemia = system: CCRF-CEM leukemia
COLO 205 colon = system: COLO 205 colon
DU-145 prostate = system: DU-145 prostate
EKVX NSCLC = system: EKVX NSCLC
HCC-2998 colon = system: HCC-2998 colon
HCT-116 colon = system: HCT-116 colon
HCT-15 colon = system: HCT-15 colon
HL-60(TB) leukemia = system: HL-60(TB) leukemia
HOP-62 NSCLC = system: HOP-62 NSCLC
HOP-92 NSCLC = system: HOP-92 NSCLC
HS 578T breast = system: HS 578T breast
HT29 colon = system: HT29 colon
IGROV1 ovarian = system: IGROV1 ovarian
K-562 leukemia = system: K-562 leukemia
KM12 colon = system: KM12 colon
LOX IMVI melanoma = system: LOX IMVI melanoma
M14 melanoma = system: M14 melanoma
MALME-3M melanoma = system: MALME-3M melanoma
MCF7 breast = system: MCF7 breast
MDA-MB-231 breast = system: MDA-MB-231 breast
MDA-MB-435 = system: MDA-MB-435
MDA-MB-468 breast = system: MDA-MB-468 breast
MOLT-4 leukemia = system: MOLT-4 leukemia
NCI-H226 lung = system: NCI-H226 lung
NCI-H23 lung = system: NCI-H23 lung
NCI-H460 lung = system: NCI-H460 lung
NCI-H522 lung = system: NCI-H522 lung
NCI/ADR-RES ovarian = system: NCI/ADR-RES ovarian
OVCAR-3 ovarian = system: OVCAR-3 ovarian
OVCAR-4 ovarian = system: OVCAR-4 ovarian
OVCAR-5 ovarian = system: OVCAR-5 ovarian
PC-3 prostate = system: PC-3 prostate
RPMI-8226 leukemia = system: RPMI-8226 leukemia
RXF 393 renal = system: RXF 393 renal
SF-268 CNS = system: SF-268 CNS
SF-295 CNS = system: SF-295 CNS
SF-539 CNS = system: SF-539 CNS
SK-MEL-2 melanoma = system: SK-MEL-2 melanoma
SK-MEL-28 melanoma = system: SK-MEL-28 melanoma
SK-MEL-5 melanoma = system: SK-MEL-5 melanoma
SK-OV-3 ovarian = system: SK-OV-3 ovarian
SN12C renal = system: SN12C renal
SNB-19 CNS = system: SNB-19 CNS
SNB-75 CNS = system: SNB-75 CNS
SR leukemia = system: SR leukemia
SW-620 colon = system: SW-620 colon
T-47D breast = system: T-47D breast
TK-10 renal = system: TK-10 renal
U251 CNS = system: U251 CNS
UACC-257 melanoma = system: UACC-257 melanoma
UACC-62 melanoma = system: UACC-62 melanoma
UO-31 renal = system: UO-31 renal

**Q.** Which results are given for `COc1cc2c3c(n(CCCN4CCC[C@@H]4CO)c(=O)c2cc1OC)-c1cc2c(cc1C3=O)OCO2`?
**A.** GI50 (786-0 renal): 647 nM; TGI (786-0 renal): 1810 nM; GI50 (A498 renal): 14000 nM; TGI (A498 renal): 28300 nM; GI50 (ACHN renal): 293 nM; TGI (ACHN renal): 1320 nM; GI50 (BT-549 breast): 1370 nM; TGI (BT-549 breast): 15500 nM; GI50 (CAKI-1 renal): 344 nM; TGI (CAKI-1 renal): 4960 nM; GI50 (CCRF-CEM leukemia): 27 nM; TGI (CCRF-CEM leukemia): 2260 nM; GI50 (COLO 205 colon): 1230 nM; TGI (COLO 205 colon): 5270 nM; GI50 (DU-145 prostate): 223 nM; TGI (DU-145 prostate): 1710 nM; GI50 (EKVX NSCLC): 1440 nM; TGI (EKVX NSCLC): 2880 nM; GI50 (HCC-2998 colon): 1400 nM; TGI (HCC-2998 colon): 2690 nM; GI50 (HCT-116 colon): 451 nM; TGI (HCT-116 colon): 2050 nM; GI50 (HCT-15 colon): 1260 nM; TGI (HCT-15 colon): 2580 nM; GI50 (HL-60(TB) leukemia): 871 nM; TGI (HL-60(TB) leukemia): 3110 nM; GI50 (HOP-62 NSCLC): 191 nM; TGI (HOP-62 NSCLC): 1680 nM; GI50 (HOP-92 NSCLC): 4270 nM; TGI (HOP-92 NSCLC): 9630 nM; GI50 (HS 578T breast): 4570 nM; TGI (HS 578T breast): 13000 nM; GI50 (HT29 colon): 1070 nM; TGI (HT29 colon): 2410 nM; GI50 (IGROV1 ovarian): 1310 nM; TGI (IGROV1 ovarian): 2640 nM; GI50 (K-562 leukemia): 1270 nM; TGI (K-562 leukemia): > 100000 nM; GI50 (KM12 colon): 1300 nM; TGI (KM12 colon): 2910 nM; GI50 (LOX IMVI melanoma): 226 nM; TGI (LOX IMVI melanoma): 1610 nM; GI50 (M14 melanoma): 473 nM; TGI (M14 melanoma): 1910 nM; GI50 (MALME-3M melanoma): 1370 nM; TGI (MALME-3M melanoma): 2830 nM; GI50 (MCF7 breast): 41.1 nM; TGI (MCF7 breast): 1450 nM; GI50 (MDA-MB-231 breast): 1380 nM; TGI (MDA-MB-231 breast): 2750 nM; GI50 (MDA-MB-435): 1220 nM; TGI (MDA-MB-435): 2540 nM; GI50 (MDA-MB-468 breast): 318 nM; TGI (MDA-MB-468 breast): 1280 nM; GI50 (MOLT-4 leukemia): < 23.3 nM; TGI (MOLT-4 leukemia): 4130 nM; GI50 (NCI-H226 lung): 771 nM; TGI (NCI-H226 lung): 2620 nM; GI50 (NCI-H23 lung): 207 nM; TGI (NCI-H23 lung): 1520 nM; GI50 (NCI-H460 lung): 84.1 nM; TGI (NCI-H460 lung): 1300 nM; GI50 (NCI-H522 lung): 3050 nM; TGI (NCI-H522 lung): 20800 nM; GI50 (NCI/ADR-RES ovarian): 356 nM; TGI (NCI/ADR-RES ovarian): 2210 nM; GI50 (OVCAR-3 ovarian): 1350 nM; TGI (OVCAR-3 ovarian): 2910 nM; GI50 (OVCAR-4 ovarian): 1700 nM; TGI (OVCAR-4 ovarian): 3330 nM; GI50 (OVCAR-5 ovarian): 1460 nM; TGI (OVCAR-5 ovarian): 2800 nM; GI50 (PC-3 prostate): 1180 nM; TGI (PC-3 prostate): 2940 nM; GI50 (RPMI-8226 leukemia): 688 nM; TGI (RPMI-8226 leukemia): 3950 nM; GI50 (RXF 393 renal): 966 nM; TGI (RXF 393 renal): 2560 nM; GI50 (SF-268 CNS): 404 nM; TGI (SF-268 CNS): 2280 nM; GI50 (SF-295 CNS): 91.3 nM; TGI (SF-295 CNS): 1470 nM; GI50 (SF-539 CNS): 267 nM; TGI (SF-539 CNS): 1150 nM; GI50 (SK-MEL-2 melanoma): 16000 nM; TGI (SK-MEL-2 melanoma): 34300 nM; GI50 (SK-MEL-28 melanoma): 1650 nM; TGI (SK-MEL-28 melanoma): 3150 nM; GI50 (SK-MEL-5 melanoma): 966 nM; TGI (SK-MEL-5 melanoma): 12800 nM; GI50 (SK-OV-3 ovarian): 520 nM; TGI (SK-OV-3 ovarian): 10300 nM; GI50 (SN12C renal): 461 nM; TGI (SN12C renal): 1810 nM; GI50 (SNB-19 CNS): 408 nM; TGI (SNB-19 CNS): 1900 nM; GI50 (SNB-75 CNS): 630 nM; TGI (SNB-75 CNS): 5050 nM; GI50 (SR leukemia): 214 nM; TGI (SR leukemia): > 100000 nM; GI50 (SW-620 colon): 399 nM; TGI (SW-620 colon): 2150 nM; GI50 (T-47D breast): 576 nM; TGI (T-47D breast): 19100 nM; GI50 (TK-10 renal): 16200 nM; TGI (TK-10 renal): 30600 nM; GI50 (U251 CNS): 358 nM; TGI (U251 CNS): 2200 nM; GI50 (UACC-257 melanoma): 12000 nM; TGI (UACC-257 melanoma): 28700 nM; GI50 (UACC-62 melanoma): 305 nM; TGI (UACC-62 melanoma): 9230 nM; GI50 (UO-31 renal): 762 nM; TGI (UO-31 renal): 2140 nM
